Results: patent US20240261367A1, “CYCLIC PEPTIDE IMMUNOMODULATORS” (priority 2021, published 2024)
Starred links: 1 amine or outer side, 2 acyl side, 3 side chain; linkers in the order of their positions; H or OH if unused. Positions of bridges follow the written chain, without caps; N, C: chain ends. Non-standard residues stand in square brackets, D forms with d. Residues, ends and D or L forms follow the SMILES beside them. X2 = COC(=O)CCCCCCCCCCCCCCCCC(=O)N[C@@H](CCC(=O)NCCOCCOCCOCCOCCOCCOCCOCCOCCOCCOCCOCCn1cc(C[C@H](NC(=N)CNC(=O)[C@H](CSCC(=O)[*:1])NC(=N)[C@H](CC(C)C)N[*:2])C(=O)OC)nn1)C(=O)OC; Ala(1-CH2COOH-inden-3-yl) = N[C@@H](CC1=CC(CC(=O)O)c2ccccc21)C(=O)O; Hyp = O=C(O)[C@@H]1C[C@@H](O)CN1; NMeNle = CCCC[C@H](NC)C(=O)O; NMeA = CN[C@@H](C)C(=O)O; Dab = NCC[C@H](N)C(=O)O; Dap = NC[C@H](N)C(=O)O

Biological target: T1, PD-1/PD-L1 (Homo sapiens, UniProt Q9NZQ7)
T1 construct: TVMV protease site linker (C); made in house; host or cells: HEK293T cells
T1 sequence (Q9NZQ7 18-239): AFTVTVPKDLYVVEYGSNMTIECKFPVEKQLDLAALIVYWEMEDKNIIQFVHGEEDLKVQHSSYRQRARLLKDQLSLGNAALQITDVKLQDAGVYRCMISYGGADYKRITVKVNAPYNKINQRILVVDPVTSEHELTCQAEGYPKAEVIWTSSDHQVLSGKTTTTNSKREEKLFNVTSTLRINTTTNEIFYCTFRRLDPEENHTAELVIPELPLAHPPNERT
Test: PD-1/PD-L1 Homogenous Time-Resolved Fluorescence (HTRF) binding assay
Conditions: PD-L1-His (10 nM) pre-incubated with inhibitor 15 m, then PD-1-Ig (20 nM)
Text: Methods for Testing the Ability of Macrocyclic Peptides to Compete for the Binding of PD-1 to PD-L1 Using Homogenous Time-Resolved Fluorescence (HTRF) Binding Assays
The ability of the compounds of formula (I) to bind to PD-L1 was investigated using a PD-1/PD-L1 Homogenous Time-Resolved Fluorescence (HTRF) binding assay.
Homogenous Time-Resolved Fluorescence (HTRF) Binding Assay
The interaction of PD-1 and PD-L1 can be assessed using soluble, purified preparations of the extracellular domains of the two proteins. The PD-1 and PD-L1 protein extracellular domains were expressed as fusion proteins with detection tags, for PD-1, the tag was the Fc portion of Immunoglobulin (PD-1-Ig) and for PD-L1 it was the 6 histidine motif (PD-L1-His). All binding studies were performed in an HTRF assay buffer consisting of dPBS supplemented with 0.1% […] bovine serum albumin and 0.05% (v/v) Tween-20. […] HTRF detection was achieved using europium crypate-labeled anti-Ig (1 nM final) and allophycocyanin (APC) labeled anti-His (20 nM final). Antibodies were diluted in HTRF detection buffer and 5 μl was dispensed on top of the binding reaction. The reaction mixture was allowed to equilibrate for 30 minutes and the resulting signal (665 nm/620 nm ratio) was obtained using an EnVision fluorometer. Additional binding assays were established between the human proteins PD-1-Ig/PD-L2-His (20 & 5 nM, respectively) and CD80-His/PD-L1-Ig (100 & 10 nM, respectively).
Recombinant Proteins: Human PD-1 (25-167) with a C-terminal human Fc domain of immunoglobulin G (Ig) epitope tag [hPD-1 (25-167)-3S-IG] and human PD-L1 (18-239) with a C-terminal His epitope tag [hPD-L1(18-239)-TVMV-His] were expressed in HEK293T cells and purified sequentially by ProteinA affinity chromatography and size exclusion chromatography. Human PD-L2-His and CD80-His was obtained through commercial sources.
Table 1 lists the IC50 values for representative examples of this disclosure measured in the PD-1/PD-L1 Homogenous Time-Resolved Fluorescence (HTRF) binding assay.

IC50 [nM] | Compound
11 | CCCC[C@H]1C(=O)N(C)[C@@H](CCCC)C(=O)N[C@@H](CC(C)C)C(=N)N[C@H](C(=O)NCC(=N)N[C@@H](Cc2cn(CCOCCOCCOCCOCCOCCOCCOCCOCCOCCOCCOCCNC(=O)CC[C@H](NC(=O)CCCCCCCCCCCCCCCCC(=O)OC)C(=O)OC)nn2)C(=O)OC)CSCC(=O)N[C@@H](Cc2ccc(O)cc2)C(=O)N(C)[C@@H](C)C(=O)N[C@@H](CC(N)=O)C(=O)N2CCC[C@H]2C(=O)N[C@@H](CN)C(=O)N[C@@H](CC(C)C)C(=O)N2C[C@H](O)C[C@H]2C(=O)N[C@@H](Cc2c[nH]c3ccccc23)C(=O)N[C@@H](CCN)C(=O)N[C@@H](CC2=CC(CC(=O)O)c3ccccc32)C(=O)N1C (stereo partly drawn) [Example 1012] (Y[NMeA]NP[Dap]L[Hyp]W[Dab][Ala(1-CH2COOH-inden-3-yl)][NMeNle][NMeNle]; linker N-C via X2)
9.3 | CCCC[C@H]1C(=O)N(C)[C@@H](CCCC)C(=O)N[C@@H](CC(C)C)C(=O)N[C@H](C(=O)NCC(=O)N[C@@H](Cc2cn(CCOCCOCCOCCOCCOCCOCCOCCOCCOCCOCCOCCNC(=O)CC[C@H](NC(=O)CCCCCCCCCCCCCCCCC(=O)O)C(=O)O)nn2)C(=O)O)CSCC(=O)N[C@@H](Cc2ccc(O)cc2)C(=O)N(C)[C@@H](C)C(=O)N[C@@H](CC(N)=O)C(=O)N2CCC[C@H]2C(=O)N[C@@H](CNC(=O)OCCC)C(=O)N[C@@H](CC(C)C)C(=O)N2C[C@H](O)C[C@H]2C(=O)N[C@@H](Cc2c[nH]c3ccccc23)C(=O)N[C@@H](CCN)C(=O)N[C@@H](CC2=CC(CC(=O)O)c3ccccc32)C(=O)N1C (stereo partly drawn) [Example 1013]
3.1 | CCCC[C@H]1C(=O)N(C)[C@@H](CCCC)C(=O)N[C@@H](CC(C)C)C(=O)N[C@H](C(=O)NCC(=O)N[C@@H](Cc2cn(CCOCCOCCOCCOCCOCCOCCOCCOCCOCCOCCOCCNC(=O)CC[C@H](NC(=O)CCCCCCCCCCCCCCCCC(=O)O)C(=O)O)nn2)C(=O)O)CSCC(=O)N[C@@H](Cc2ccc(O)cc2)C(=O)N(C)[C@@H](C)C(=O)N[C@@H](CC(N)=O)C(=O)N2CCC[C@H]2C(=O)N[C@@H](CNC(=O)OCC(C)C)C(=O)N[C@@H](CC(C)C)C(=O)N2C[C@H](O)C[C@H]2C(=O)N[C@@H](Cc2c[nH]c3ccccc23)C(=O)N[C@@H](CCN)C(=O)N[C@@H](CC2=CC(CC(=O)O)c3ccccc32)C(=O)N1C (stereo partly drawn) [Example 1014]
13 | CCCC[C@H]1C(=O)N(C)[C@@H](CCCC)C(=O)N[C@@H](CC(C)C)C(=O)N[C@H](C(=O)NCC(=O)N[C@@H](Cc2cn(CCOCCOCCOCCOCCOCCOCCOCCOCCOCCOCCOCCNC(=O)CC[C@H](NC(=O)CCCCCCCCCCCCCCCCC(=O)O)C(=O)O)nn2)C(=O)O)CSCC(=O)N[C@@H](Cc2ccc(O)cc2)C(=O)N(C)[C@@H](C)C(=O)N[C@@H](CC(N)=O)C(=O)N2CCC[C@H]2C(=O)N[C@@H](CNC(=O)OC)C(=O)N[C@@H](CC(C)C)C(=O)N2C[C@H](O)C[C@H]2C(=O)N[C@@H](Cc2c[nH]c3ccccc23)C(=O)N[C@@H](CCN)C(=O)N[C@@H](CC2=CC(CC(=O)O)c3ccccc32)C(=O)N1C (stereo partly drawn) [Example 1016]
6.3 | CCCC[C@H]1C(=O)N(C)[C@@H](CCCC)C(=O)N[C@@H](CC(C)C)C(=O)N[C@H](C(=O)NCC(=O)N[C@@H](Cc2cn(CCOCCOCCOCCOCCOCCOCCOCCOCCOCCOCCOCCNC(=O)CC[C@H](NC(=O)CCCCCCCCCCCCCCCCC(=O)O)C(=O)O)nn2)C(=O)O)CSCC(=O)N[C@@H](Cc2ccc(O)cc2)C(=O)N(C)[C@@H](C)C(=O)N[C@@H](CC(N)=O)C(=O)N2CCC[C@H]2C(=O)N[C@@H](CNC(=O)OC)C(=O)N[C@@H](CC(C)C)C(=O)N2C[C@H](O)C[C@H]2C(=O)N[C@@H](Cc2c[nH]c3ccccc23)C(=O)N[C@@H](CCNC(=O)OC)C(=O)N[C@@H](CC2=CC(CC(=O)O)c3ccccc32)C(=O)N1C (stereo partly drawn) [Example 1019]
27 | CCCC[C@H]1C(=O)N(C)[C@@H](CCCC)C(=O)N[C@@H](CC(C)C)C(=O)N[C@H](C(=O)NCC(=O)N[C@@H](Cc2cn(CCOCCOCCOCCOCCOCCOCCOCCOCCOCCOCCOCCNC(=O)CC[C@H](NC(=O)CCCCCCCCCCCCCCCCC(=O)O)C(=O)O)nn2)C(=O)O)CSCC(=O)N[C@@H](Cc2ccc(O)cc2)C(=O)N(C)[C@@H](C)C(=O)N[C@@H](CC(N)=O)C(=O)N2CCC[C@H]2C(=O)N[C@@H](CNC(=O)OCc2oc(=O)oc2C)C(=O)N[C@@H](CC(C)C)C(=O)N2C[C@H](O)C[C@H]2C(=O)N[C@@H](Cc2c[nH]c3ccccc23)C(=O)N[C@@H](CCN)C(=O)N[C@@H](CC2=CC(CC(=O)O)c3ccccc32)C(=O)N1C (stereo partly drawn) [Example 1021]
6.8 | CCCC[C@H]1C(=O)N(C)[C@@H](CCCC)C(=O)N[C@@H](CC(C)C)C(=O)N[C@H](C(=O)NCC(=O)N[C@@H](Cc2cn(CCOCCOCCOCCOCCOCCOCCOCCOCCOCCOCCOCCNC(=O)CC[C@H](NC(=O)CCCCCCCCCCCCCCCCC(=O)O)C(=O)O)nn2)C(=O)O)CSCC(=O)N[C@@H](Cc2ccc(O)cc2)C(=O)N(C)[C@@H](C)C(=O)N[C@@H](CC(N)=O)C(=O)N2CCC[C@H]2C(=O)N[C@@H](CNC(=O)OCc2oc(=O)oc2C)C(=O)N[C@@H](CC(C)C)C(=O)N2C[C@H](O)C[C@H]2C(=O)N[C@@H](Cc2c[nH]c3ccccc23)C(=O)N[C@@H](CCNC(=O)CCc2oc(=O)oc2C)C(=O)N[C@@H](CC2=CC(CC(=O)O)c3ccccc32)C(=O)N1C (stereo partly drawn) [Example 1022]
13 | CCCC[C@H]1C(=O)N(C)[C@@H](CCCC)C(=O)N[C@@H](CC(C)C)C(=O)N[C@H](C(=O)NCC(=O)N[C@@H](Cc2cn(CCOCCOCCOCCOCCOCCOCCOCCOCCOCCOCCOCCNC(=O)CC[C@H](NC(=O)CCCCCCCCCCCCCCCCC(=O)O)C(=O)OCC)nn2)C(=O)O)CSCC(=O)N[C@@H](Cc2ccc(O)cc2)C(=O)N(C)[C@@H](C)C(=O)N[C@@H](CC(N)=O)C(=O)N2CCC[C@H]2C(=O)N[C@@H](CN)C(=O)N[C@@H](CC(C)C)C(=O)N2C[C@H](O)C[C@H]2C(=O)N[C@@H](Cc2c[nH]c3ccccc23)C(=O)N[C@@H](CCN)C(=O)N[C@@H](CC2=CC(CC(=O)O)c3ccccc32)C(=O)N1C (stereo partly drawn) [Example 1024]
12 | CCCC[C@H]1C(=O)N(C)[C@@H](CCCC)C(=O)N[C@@H](CC(C)C)C(=O)N[C@H](C(=O)NCC(=O)N[C@@H](Cc2cn(CCOCCOCCOCCOCCOCCOCCOCCOCCOCCOCCOCCNC(=O)CC[C@H](NC(=O)CCCCCCCCCCCCCCCCC(=O)O)C(=O)O)nn2)C(=O)OCC)CSCC(=O)N[C@@H](Cc2ccc(O)cc2)C(=O)N(C)[C@@H](C)C(=O)N[C@@H](CC(N)=O)C(=O)N2CCC[C@H]2C(=O)N[C@@H](CN)C(=O)N[C@@H](CC(C)C)C(=O)N2C[C@H](O)C[C@H]2C(=O)N[C@@H](Cc2c[nH]c3ccccc23)C(=O)N[C@@H](CCN)C(=O)N[C@@H](CC2=CC(CC(=O)O)c3ccccc32)C(=O)N1C (stereo partly drawn) [Example 1025]
2.9 | CCCC[C@H]1C(=O)N(C)[C@@H](CCCC)C(=O)N[C@@H](CC(C)C)C(=O)N[C@H](C(=O)NCC(=O)N[C@@H](Cc2cn(CCOCCOCCOCCOCCOCCOCCOCCOCCOCCOCCOCCNC(=O)CC[C@H](NC(=O)CCCCCCCCCCCCCCCCC(=O)O)C(=O)OC)nn2)C(=O)O)CSCC(=O)N[C@@H](Cc2ccc(O)cc2)C(=O)N(C)[C@@H](C)C(=O)N[C@@H](CC(N)=O)C(=O)N2CCC[C@H]2C(=O)N[C@@H](CN)C(=O)N[C@@H](CC(C)C)C(=O)N2C[C@H](O)C[C@H]2C(=O)N[C@@H](Cc2c[nH]c3ccccc23)C(=O)N[C@@H](CCN)C(=O)N[C@@H](CC2=CC(CC(=O)O)c3ccccc32)C(=O)N1C (stereo partly drawn) [Example 1026]
170 | CCCC[C@H]1C(=O)N(C)[C@@H](CCCC)C(=O)N[C@@H](CC(C)C)C(=O)N[C@H](C(=O)NCC(=O)N[C@@H](Cc2cn(CCOCCOCCOCCOCCOCCOCCOCCOCCOCCOCCOCCNC(=O)CC[C@H](NC(=O)CCCCCCCCCCCCCCCCC(=O)OC)C(=O)OC)nn2)C(=O)OC)CSCC(=O)N[C@@H](Cc2ccc(O)cc2)C(=O)N(C)[C@@H](C)C(=O)N[C@@H](CC(N)=O)C(=O)N2CCC[C@H]2C(=O)N[C@@H](CNC(=O)OC(C)(C)C)C(=O)N[C@@H](CC(C)C)C(=O)N2C[C@H](O)C[C@H]2C(=O)N[C@@H](Cc2c[nH]c3ccccc23)C(=O)N[C@@H](CCNC(=O)OC(C)(C)C)C(=O)N[C@@H](Cc2cn(CC(=O)OC)c3ccccc23)C(=O)N1C [Example 2001]

Compound | IC50 [nM]
CCCC[C@H]1C(=O)N(C)[C@@H](CCCC)C(=O)N[C@@H](CC(C)C)C(=O)N[C@H](C(=O)NCC(=O)N[C@@H](Cc2cn(CCOCCOCCOCCOCCOCCOCCOCCOCCOCCOCCOCCNC(=O)CC[C@H](NC(=O)CCCCCCCCCCCCCCCCC(=O)O)C(=O)O)nn2)C(=O)O)CSCC(=O)N[C@@H](Cc2ccc(O)cc2)C(=O)N(C)[C@@H](C)C(=O)N[C@@H](CC(N)=O)C(=O)N2CCC[C@H]2C(=O)N[C@@H](CNC(=O)O[C@H]2CC[C@@]3(C)C(CC[C@H]4[C@@H]5CC[C@H]([C@H](C)CCCC(C)C)[C@@]5(C)CC[C@@H]43)C2)C(=O)N[C@@H](CC(C)C)C(=O)N2C[C@H](O)C[C@H]2C(=O)N[C@@H](Cc2c[nH]c3ccccc23)C(=O)N[C@@H](CC)C(=O)N[C@@H](CC2=CC(CC(=O)O)c3ccccc32)C(=O)N1C (stereo partly drawn) [Example 1027] | 110
